Test results published in patent US20260007133A1, “HERBICIDAL COMPOSITION COMPRISING AZINE COMPOUNDS” (BASF SE, priority 2022, published 2026).

Columns and labels:
Type in all cases: in vivo
[1] = system: Abutilon theophrasti; experiment: Greenhouse pre-emergence (PRE) herbicidal test on ABUTH; details: Abutilon theophrasti, pre-emergence
Experimental: (§1) The culture containers used were plastic pots containing loamy sand with approximately 3.0% of humus as substrate. The seeds of the test plants were sown separately for each species.
(§2) The containers were irrigated gently to promote germination and growth and subsequently covered with transparent plastic hoods until the plants had rooted.
(§3) Depending on the species, the plants were kept at 10-25° C. and 20-35° C., respectively.
(§4) The test period extended over 2 to 4 weeks. During this time, the plants were tended and their response to the individual treatments was evaluated.
(§5) Evaluation was carried out using a scale from 0 to 100. 100 means no emergence of the plants, or complete destruction of at least the above-ground parts, and 0 means no damage or normal course of growth. A good herbicidal activity is given at values of at least 70, and very good herbicidal activity is given at values of at least 85.
(§6) As indicated application was either post emergent (POST) at the respective growth stage (GS) of the weed (BBCH code), or pre-emergent (PRE). […]

[2] = system: Ambrosia artemisiifolia; experiment: Greenhouse pre-emergence (PRE) herbicidal test on AMBEL; details: Ambrosia artemisiifolia, pre-emergence
Experimental: as §1, §2, §3, §4, §5, §6

[3] = system: Commelina benghalensis; experiment: Greenhouse pre-emergence (PRE) herbicidal test on COMBE; details: Commelina benghalensis, pre-emergence
Experimental: as §1, §2, §3, §4, §5, §6

[4] = system: Lolium multiflorum; experiment: Greenhouse pre-emergence (PRE) herbicidal test on LOLMU; details: Lolium multiflorum, pre-emergence
Experimental: as §1, §2, §3, §4, §5, §6

[5] = system: Alopecurus myosuroides; experiment: Greenhouse pre-emergence (PRE) herbicidal test on ALOMY; details: Alopecurus myosuroides, pre-emergence
Experimental: as §1, §2, §3, §4, §5, §6

[6] = system: Euphorbia heterophylla; experiment: Greenhouse pre-emergence (PRE) herbicidal test on EPHHL; details: Euphorbia heterophylla, pre-emergence
Experimental: as §1, §2, §3, §4, §5, §6

[7] = system: Abutilon theophrasti; experiment: Greenhouse post-emergence (POST) herbicidal test on ABUTH; details: Abutilon theophrasti, post-emergence, POST, ABUTH
Experimental: as §1
(§7) For the post-emergence treatment, the test plants were grown to a plant height of from 3 to 15 cm, depending on the plant habit, and only then treated with the active compounds which had been suspended or emulsified in water. To this end, the test plants were either sown directly, and grown in the same containers, or they were first grown separately as seedlings and transplanted into the test containers a few days prior to treatment.
as §3, §4, §5
(§8) If not stated differently, the respective components A and B, and if appropriate, C were formulated as a 5% by weight strength emulsion concentrate and, with addition of the amount of solvent system, introduced into the spray liquor used for applying the active compound.
as §6

[8] = system: Geranium pusillum; experiment: Greenhouse post-emergence (POST) herbicidal test on GERPU; details: Geranium pusillum, post-emergence
Experimental: as §1, §7, §3, §4, §5, §8, §6

[9] = system: Digitaria sanguinalis; experiment: Greenhouse post-emergence (POST) herbicidal test on DIGSA; details: for % activity: DIGSA POST
Experimental: as §1, §7, §3, §4, §5, §8, §6

[10] = system: Echinochloa crus-galli; experiment: Greenhouse post-emergence (POST) herbicidal test on ECHCG; details: for % activity: ECHCG POST
Experimental: as §1, §7, §3, §4, §5, §8, §6

[11] = system: Euphorbia heterophylla; experiment: Greenhouse post-emergence (POST) herbicidal test on EPHHL; details: Euphorbia heterophylla, post-emergence, POST, EPHHL
Experimental: as §1, §7, §3, §4, §5, §8, §6

[12] = Digitaria sanguinalis, post-emergence, read-out: % activity

CCc1cnc(C2=NC(C)(C(C)C)C(=O)N2)c(C(=O)O)c1 (centres unmarked) [Imazethapyr, imazethapyr]
inhibition at […] ([1]; PRE, ABUTH, use rate 7.5 gai/ha, read-out: % activity): 60%
inhibition at […] ([2]; PRE, AMBEL, use rate 7.5 gai/ha, read-out: % activity): 0%
inhibition at 15 g/ha ([2]; PRE, AMBEL, use rate 15 gai/ha): 10%
inhibition at […] ([3]; PRE, COMBE, use rate 7.5 gai/ha, read-out: % activity): 30%
inhibition at 15 g/ha ([3]; PRE, COMBE, use rate 15 gai/ha): 70%
inhibition at 15 g/ha ([4]; PRE, LOLMU, use rate 15 gai/ha): 40%

CCCN(CCC)c1c([N+](=O)[O-])cc(C(F)(F)F)cc1[N+](=O)[O-] [Trifluralin, trifluralin]
pest or weed control at 500 g/ha ([1]; 480 h, PRE, ABUTH, Trifluralin solo 500 gai/ha, 20 DAT, read-out: % activity): 25%
pest or weed control at 1000 g/ha ([5]; 480 h, PRE, ALOMY, Trifluralin solo 1000 gai/ha, 20 DAT): 65%
pest or weed control at 500 g/ha ([2]; 480 h, PRE, AMBEL, Trifluralin solo 500 gai/ha, 20 DAT, read-out: % activity): 10%
pest or weed control at 1000 g/ha ([3]; 480 h, PRE, COMBE, Trifluralin solo 1000 gai/ha, 20 DAT): 80%
pest or weed control at 1000 g/ha ([6]; 480 h, PRE, EPHHL, Trifluralin solo 1000 gai/ha, 20 DAT): 35%
pest or weed control at 500 g/ha ([4]; 480 h, PRE, LOLMU, Trifluralin solo 500 gai/ha, 20 DAT, read-out: % activity): 5%
pest or weed control at 1000 g/ha ([4]; 480 h, PRE, LOLMU, Trifluralin solo 1000 gai/ha, 20 DAT): 15%
pest or weed control at 500 g/ha ([7]; 480 h, Trifluralin solo 500 gai/ha, 20 DAT, read-out: % activity): 15%
pest or weed control at 1000 g/ha ([7]; 480 h, Trifluralin solo 1000 gai/ha, 20 DAT): 70%
pest or weed control at 500 g/ha ([8]; 480 h, POST, GERPU, Trifluralin solo 500 gai/ha, 20 DAT, read-out: % activity): 25%
pest or weed control at 1000 g/ha ([8]; 480 h, POST, GERPU, Trifluralin solo 1000 gai/ha, 20 DAT): 85%

C[C@@H](Oc1ccc(Oc2nc3ccc(Cl)cc3o2)cc1)C(=O)N(C)c1ccccc1F [Metamifop, metamifop]
% activity ([9]; use rate 25 gai/ha): 85%
% activity ([10]; use rate 6.25 gai/ha): 50%

CCCN(CCC)C(=O)SCc1ccccc1 [Prosulfocarb, prosulfocarb]
pest or weed control at 600 g/ha ([1]; 480 h, PRE, ABUTH, Prosulfocarb solo 600 gai/ha, 20 DAT): 40%
pest or weed control at 600 g/ha ([2]; 480 h, PRE, AMBEL, Prosulfocarb solo 600 gai/ha, 20 DAT): 10%
pest or weed control at 150 g/ha ([6]; 480 h, PRE, EPHHL, Prosulfocarb solo 150 gai/ha, 20 DAT): 5%
pest or weed control at 600 g/ha ([6]; 480 h, PRE, EPHHL, Prosulfocarb solo 600 gai/ha, 20 DAT): 5%
pest or weed control at 150 g/ha ([4]; 480 h, PRE, LOLMU, Prosulfocarb solo 150 gai/ha, 20 DAT): 15%
pest or weed control at 600 g/ha ([4]; 480 h, PRE, LOLMU, Prosulfocarb solo 600 gai/ha, 20 DAT): 20%
pest or weed control at 600 g/ha ([9]; Digitaria sanguinalis, post-emergence, 480 h, POST, DIGSA, Prosulfocarb solo 600 gai/ha, 20 DAT): 5%
pest or weed control at 600 g/ha ([8]; 480 h, POST, GERPU, Prosulfocarb solo 600 gai/ha, 20 DAT): 20%

COc1c(Cl)ccc(Cl)c1C(=O)O [Dicamba, dicamba]
inhibition at 31.25 g/ha ([7]; use rate 31.25 gai/ha): 60%
inhibition at 62.5 g/ha ([7]; use rate 62.5 gai/ha): 65%
inhibition at 31.25 g/ha ([11]; use rate 31.25 gai/ha): 10%
inhibition at 62.5 g/ha ([11]; use rate 62.5 gai/ha): 35%

CSc1nnc(C(C)(C)C)c(=O)n1N [Metribuzin, metribuzin]
inhibition at 31.25 g/ha ([3]; COMBE PRE, use rate 31.25 gai/ha): 10%
inhibition at 62.5 g/ha ([3]; COMBE PRE, use rate 62.5 gai/ha): 20%
inhibition at 31.25 g/ha ([8]; GERPU POST, use rate 31.25 gai/ha): 70%

CCCCOC(=O)[C@@H](C)Oc1ccc(Oc2ccc(C#N)cc2F)cc1 [Cyhalofop-Butyl, cyhalofop-butyl]
inhibition at 6.25 g/ha [9, 12]: 35%
inhibition at 25 g/ha [9, 12]: 70%
inhibition at 6.25 g/ha ([10]; Echinochloa crus-galli, post-emergence, read-out: % activity): 80%

CS(=O)(=O)c1cc(C(F)(F)F)ccc1C(=O)c1cnoc1C1CC1 [Isoxaflutole, isoxaflutole]
inhibition at 6.3 g/ha ([1]; ABUTH PRE, use rate 6.3 gai/ha): 45%
inhibition at 6.3 g/ha ([5]; ALOMY PRE, use rate 6.3 gai/ha): 0%
inhibition at 25 g/ha ([5]; ALOMY PRE, use rate 25 gai/ha): 0%
inhibition at 6.3 g/ha ([2]; AMBEL PRE, use rate 6.3 gai/ha): 25%
inhibition at 6.3 g/ha ([6]; EPHHL PRE, use rate 6.3 gai/ha): 45%
inhibition at 25 g/ha ([6]; EPHHL PRE, use rate 25 gai/ha): 75%
inhibition at 6.3 g/ha ([4]; LOLMU PRE, use rate 6.3 gai/ha): 0%

CCOC(=O)COc1ncccc1Oc1cc(-n2c(=O)cc(C(F)(F)F)n(C)c2=O)c(F)cc1Cl [Epyrifenacil, epyrifenacil]
% activity ([9]; use rate 0.5 gai/ha): 20%
% activity ([9]; use rate 1 gai/ha): 55%
% activity ([10]; use rate 1 gai/ha): 45%
